Experimental data: US9763979B2, “Cardioplegic preparation” (Universitat Bern, priority 2008, dated 2017)

Experiment: Experimental and clinical tests of potassium bioavailability
Details: in presence of xylitol and/or citric acid
Excerpt: As compared to previous cardioplegic solutions the preparation according to the invention has a higher potassium concentration. […] By increasing thus the initial content of potassium in the cardioplegic solution, the concentration necessary to achieve the cardioplegic effect is guaranteed.

For `[Cl-].[K+]` [Potassium ions, Potassium chloride], the “bioavailability of Potassium ions” value was “reduced bioavailability”.
